# Values of other authors in patent US8143291B2, “Indole compounds bearing aryl or heteroaryl groups having sphingosine-1-phosphate (S1P) receptor biological activity” (Allergan, Inc., priority 2008, dated 2012).
# Tested on: perfused porcine eyes
# Conditions: by altering paracellular permeability, IOVS 45, 2263, 2004
smiles,measurement,value
"CCCCCCCCCCCCC/C=C/[C@@H](O)[C@@H](N)COP(=O)(O)O [S1P, Sphingosine-1-phosphate]",decrease of outflow facility,> 30%
